Laboratory results taken from patent US6355799B1, “Substituted benzene compounds, process for their preparation, and herbicidal and defoliant compositions containing them” (ISK Americas Incorporated, priority 1997, dated 2002).

What was measured:
Format in all cases: in vivo
[1] = tested on: redroot pigweed (Amaranthus retroflexus, AMARE); experiment: Pre-emerge test, greenhouse herbicide activity screening; conditions: pre-emerge, rated 14 days after application, 0 = no damage, 100 = complete death
Summary of the method: (§1)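 Plants grown in 10 cm pots of sandy loam mix received acetone-dissolved compounds through a moving flat-fan nozzle. Doses ranged from 15 to 1000 g ai/ha. Pre-emerge pots were seeded one day earlier, post-emerge pots 8–21 days earlier. Fourteen days on, each pot was graded 0–100 for damage.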

[2] = tested on: barnyardgrass (Echinochloa crus-galli, ECHCG); experiment: as above; conditions: pre-emerge, rated 14 days after application, 0 = no damage, 100 = complete death
Summary of the method: (§2)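 Compounds in acetone were track-sprayed at 187 l/ha, 15–1000 g ai/ha, onto sandy loam pots. Pre-emerge seeds were sown one day before spraying, with surface watering afterwards. Post-emerge plants were at the 2–3 leaf stage and sprayed with 0.25% v/v non-ionic surfactant. Injury was rated 0–100 at 14 days.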

[3] = tested on: green foxtail (Setaria viridis, SETVI); experiment: as above; conditions: pre-emerge, rated 14 days after application, 0 = no damage, 100 = complete death
Summary of the method: as §2

[4] = tested on: ivyleaf morningglory (Ipomoea hederacea, IPOHE); experiment: as above; conditions: pre-emerge, rated 14 days after application, 0 = no damage, 100 = complete death
Summary of the method: as §2

[5] = tested on: johnsongrass (Sorghum halepense, SORHA); experiment: as above; conditions: pre-emerge, rated 14 days after application, 0 = no damage, 100 = complete death
Summary of the method: as §2

[6] = tested on: lambsquarters (Chenopodium album, CHEAL); experiment: as above; conditions: pre-emerge, rated 14 days after application, 0 = no damage, 100 = complete death
Summary of the method: as §2

[7] = tested on: large crabgrass (Digitaria sanguinalis, DIGSA); experiment: as above; conditions: pre-emerge, rated 14 days after application, 0 = no damage, 100 = complete death
Summary of the method: as §2

[8] = tested on: sicklepod (Cassia obtusifolia, CASOB); experiment: as above; conditions: pre-emerge, rated 14 days after application, 0 = no damage, 100 = complete death
Summary of the method: as §2

[9] = tested on: velvetleaf (Abutilon theophrasti, ABUTH); experiment: as above; conditions: pre-emerge, rated 14 days after application, 0 = no damage, 100 = complete death
Summary of the method: as §2

[10] = tested on: field corn (Zea mays L., var. Dekalb 535, CORN); experiment: Pre-emerge test, crop safety; conditions: pre-emerge, rated 14 days after application, 0 = no damage, 100 = complete death
Summary of the method: (§3)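 Fourteen days after spraying, crop and weed injury was graded visually from 0, no effect, to 100, every plant dead. Test substances were dissolved in acetone and applied at 15–1000 g ai/ha with a flat-fan nozzle. Application was either pre-emergence, one day after sowing, or post-emergence at the 2–3 leaf stage.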

[11] = tested on: upland rice (Oryza sp., var. Tebonnet, RICE); experiment: Pre-emerge test, crop safety; conditions: pre-emerge, rated 14 days after application, 0 = no damage, 100 = complete death
Summary of the method: as §3

[12] = tested on: barnyardgrass (Echinochloa crus-galli, ECHCG); experiment: Post-emerge test, greenhouse herbicide activity screening; conditions: phytotoxicity rating 0-100 (0 no damage, 100 complete death), 14 days after application
Summary of the method: as §1

[13] = tested on: green foxtail (Setaria viridis, SETVI); experiment: as above; conditions: phytotoxicity rating 0-100 (0 no damage, 100 complete death), 14 days after application
Summary of the method: as §1

[14] = tested on: ivyleaf morningglory (Ipomoea hederacea, IPOHE); experiment: as above; conditions: phytotoxicity rating 0-100 (0 no damage, 100 complete death), 14 days after application
Summary of the method: as §1

[15] = tested on: johnsongrass (Sorghum halepense, SORHA); experiment: as above; conditions: phytotoxicity rating 0-100 (0 no damage, 100 complete death), 14 days after application
Summary of the method: as §1

[16] = tested on: lambsquarters (Chenopodium album, CHEAL); experiment: as above; conditions: phytotoxicity rating 0-100 (0 no damage, 100 complete death), 14 days after application
Summary of the method: as §1

[17] = tested on: large crabgrass (Digitaria sanguinalis, DIGSA); experiment: as above; conditions: phytotoxicity rating 0-100 (0 no damage, 100 complete death), 14 days after application
Summary of the method: as §1

[18] = tested on: redroot pigweed (Amaranthus retroflexus, AMARE); experiment: as above; conditions: phytotoxicity rating 0-100 (0 no damage, 100 complete death), 14 days after application
Summary of the method: as §1

[19] = tested on: sicklepod (Cassia obtusifolia, CASOB); experiment: as above; conditions: phytotoxicity rating 0-100 (0 no damage, 100 complete death), 14 days after application
Summary of the method: as §1

[20] = tested on: velvetleaf (Abutilon theophrasti, ABUTH); experiment: as above; conditions: phytotoxicity rating 0-100 (0 no damage, 100 complete death), 14 days after application
Summary of the method: as §1

[21] = tested on: field corn (Zea mays L., var. Dekalb 535, CORN); experiment: Post-emerge test, crop safety; conditions: phytotoxicity rating 0-100 (0 no damage, 100 complete death), 14 days after application
Summary of the method: as §2

[22] = tested on: upland rice (Oryza sp., var. Tebonnet, RICE); experiment: Post-emerge test, crop safety; conditions: phytotoxicity rating 0-100 (0 no damage, 100 complete death), 14 days after application
Summary of the method: as §2

## Cn1c(C(F)(F)F)cc(=O)n(-c2c(F)cc(Cl)c(OCC#N)c2N)c1=O [Compound 1-18]
[1]; 63 g ai/ha
  Pre-emerge Herbicidal Activity AMARE (phytotoxicity rating, scale 0-100): 100
[1]; 250 g ai/ha
  Pre-emerge Herbicidal Activity AMARE (phytotoxicity rating, scale 0-100): 100
[2]; 63 g ai/ha
  Pre-emerge Herbicidal Activity ECHCG (phytotoxicity rating, scale 0-100): 0
[2]; 250 g ai/ha
  Pre-emerge Herbicidal Activity ECHCG (phytotoxicity rating, scale 0-100): 80
[3]; 63 g ai/ha
  Pre-emerge Herbicidal Activity SETVI (phytotoxicity rating, scale 0-100): 95
[3]; 250 g ai/ha
  Pre-emerge Herbicidal Activity SETVI (phytotoxicity rating, scale 0-100): 99
[4]; 63 g ai/ha
  Pre-emerge Herbicidal Activity IPOHE (phytotoxicity rating, scale 0-100): 100
[4]; 250 g ai/ha
  Pre-emerge Herbicidal Activity IPOHE (phytotoxicity rating, scale 0-100): 100
[5]; 63 g ai/ha
  Pre-emerge Herbicidal Activity SORHA (phytotoxicity rating, scale 0-100): 70
[5]; 250 g ai/ha
  Pre-emerge Herbicidal Activity SORHA (phytotoxicity rating, scale 0-100): 100
[6]; 63 g ai/ha
  Pre-emerge Herbicidal Activity CHEAL (phytotoxicity rating, scale 0-100): 100
[6]; 250 g ai/ha
  Pre-emerge Herbicidal Activity CHEAL (phytotoxicity rating, scale 0-100): 100
[7]; 63 g ai/ha
  Pre-emerge Herbicidal Activity DIGSA (phytotoxicity rating, scale 0-100): 70
[7]; 250 g ai/ha
  Pre-emerge Herbicidal Activity DIGSA (phytotoxicity rating, scale 0-100): 90
[8]; 63 g ai/ha
  Pre-emerge Herbicidal Activity CASOB (phytotoxicity rating, scale 0-100): 70
[8]; 250 g ai/ha
  Pre-emerge Herbicidal Activity CASOB (phytotoxicity rating, scale 0-100): 100
[9]; 63 g ai/ha
  Pre-emerge Herbicidal Activity ABUTH (phytotoxicity rating, scale 0-100): 100
[9]; 250 g ai/ha
  Pre-emerge Herbicidal Activity ABUTH (phytotoxicity rating, scale 0-100): 100
[10]; 63 g ai/ha
  Pre-emerge crop damage CORN (phytotoxicity rating, scale 0-100): 40
[10]; 250 g ai/ha
  Pre-emerge crop damage CORN (phytotoxicity rating, scale 0-100): 90
[11]; 63 g ai/ha
  Pre-emerge crop damage RICE (phytotoxicity rating, scale 0-100): 30
[11]; 250 g ai/ha
  Pre-emerge crop damage RICE (phytotoxicity rating, scale 0-100): 70
[12]; 63 g ai/ha
  Post-emerge Herbicidal Activity ECHCG: 0
[12]; 250 g ai/ha
  Post-emerge Herbicidal Activity ECHCG: 0
[13]; 63 g ai/ha
  Post-emerge Herbicidal Activity SETVI: 70
[13]; 250 g ai/ha
  Post-emerge Herbicidal Activity SETVI: 70
[14]; 63 g ai/ha
  Post-emerge Herbicidal Activity IPOHE: 80
[14]; 250 g ai/ha
  Post-emerge Herbicidal Activity IPOHE: 100
[15]; 63 g ai/ha
  Post-emerge Herbicidal Activity SORHA: 50
[15]; 250 g ai/ha
  Post-emerge Herbicidal Activity SORHA: 50
[16]; 63 g ai/ha
  Post-emerge Herbicidal Activity CHEAL: 70
[16]; 250 g ai/ha
  Post-emerge Herbicidal Activity CHEAL: 100
[17]; 63 g ai/ha
  Post-emerge Herbicidal Activity DIGSA: 50
[17]; 250 g ai/ha
  Post-emerge Herbicidal Activity DIGSA: 50
[18]; 63 g ai/ha
  Post-emerge Herbicidal Activity AMARE: 70
[18]; 250 g ai/ha
  Post-emerge Herbicidal Activity AMARE: 100
[19]; 63 g ai/ha
  Post-emerge Herbicidal Activity CASOB: 30
[19]; 250 g ai/ha
  Post-emerge Herbicidal Activity CASOB: 95
[20]; 63 g ai/ha
  Post-emerge Herbicidal Activity ABUTH: 100
[20]; 250 g ai/ha
  Post-emerge Herbicidal Activity ABUTH: 100
[21]; 63 g ai/ha
  Post-emerge Herbicidal Activity CORN (crop damage): 0
[21]; 250 g ai/ha
  Post-emerge Herbicidal Activity CORN (crop damage): 0
[22]; 63 g ai/ha
  Post-emerge Herbicidal Activity RICE (crop damage): 0
[22]; 250 g ai/ha
  Post-emerge Herbicidal Activity RICE (crop damage): 0
